Here are results for three compounds from EP2958933B1, “CROSSLINKED PEPTIDE HYDROGELS” (Agency for Science, Technology and Research, priority 2013, dated 2018).

Peptide text beside a SMILES is read from it.

A short description of data set [1]: Concentration dependence of self-assembly (aggregates, fibers). The class given is physicochemical. An excerpt:
An amphiphilic linear sequence of an amphiphilic peptide and/or peptoid disclosed herein, including an amphiphilic linear peptide and/or peptoid, is capable of providing a self assembling α-helical fiber in aqueous solution under physiological conditions. The peptides/peptoids (typically 3-7-mers) in the L- or D-form can self assemble into supramolecular helical fibers which are organized into mesh-like structures mimicking biological substances such as collagen. It has previously been observed in X-ray crystallography that peptides of a length of 3 to 6 amino acids with repetitive alanine containing sequences and an acetylated […] take a helical conformation (Hatakeyama, Y, et al, Angew. Chem. Int. Ed. (2009) 8695-8698). Using peptides with an amphiphilic sequence disclosed herein, Ac-LD6 (L), the formation of aggregates has for example been observed already at 0.1 mg/ml. […] With a formation of fibers occurring under physiological conditions at concentrations below 2 mM a peptide/peptoid disclosed herein is well suited as an injectable hydrogel material that can form a hydrogel under physiological conditions. Also disclosed herein is an amphiphilic linear peptide and/or peptoid as defined above for tissue engineering as well as to a tissue engineering method that involves applying, including injecting a respective amphiphilic linear peptide and/or peptoid.

The nature of data set [2]: Determination of a suitable gelation concentration. The class given is physicochemical. The settings on record: for working concentration at which gels are formed: gels with sufficient mechanical integrity to withstand handling / gel formation. An excerpt: Reference is now made to the figures, wherein: • Figures 1A to 1M represent a sorted list of some exemplary peptides capable of forming hydrogels. These peptides are examples in which the entire peptide consists of a single linear amphiphilic sequence. Peptides which are forming hydrogels are named with a short code, but their individual sequence is disclosed. The peptides of these examples consist of a sequence of natural amino acids containing 3 to 7 amino acids. The N-terminus is acetylated which removes the charge that would otherwise restrain the amphiphilic character of the peptides. • Figure 2 depicts gelation pictures for peptide based hydrogels at lowest concentrations. • Figure 3 depicts gelation pictures for Ac-AS-6 (Ac-AIVAGS) (L) at concentrations of 5 mg/ml, 10 mg/ml, 15 mg/ml. • Figure 4 depicts a hypothesis of self-assembly from peptide monomers to supramolecular network of condensed fibers. (A) Assembly is believed to initiate with antiparallel pairing of two peptide monomers by changing to α-helical conformations. Subsequently, peptide pairs assemble to fibers and nanostructures. Condensation of peptide fibers to fiber aggregates results in hydrogel formation. • Figure 5 depicts environmental scanning electron microscopy (ESEM) images of hydrogels of Ac-LD6 (Ac-LIVAGD) (L) (10 mg/ml), where Fig. 5A, Fig. 5B and Fig. 5C are images obtained at magnification of 260X, 1000X, 2000X, 2400X, 4000X at a temperature of 4 °C with HV at 10KV. […] 8A), and 450 X (fig. […] (a) A honeycomb porous structure is observed following lyophilization of 20 mg/mL Ac-AD6 (Ac-AIVAGD) (D) hydrogel. The pores are bounded by membranes of condensed fibers as shown in close-up views of 15 mg/mL (b) and 20 mg/mL (c) Ac-ID3 (Ac-IVD) (L) hydrogels. […] Heating the samples to facilitate gelation increased the β type aggregation. […] (e) Far-UV CD spectra of AcID3 (Ac-IVD) at different concentrations. […] (a, b) The high mechanical strengths of different peptide hydrogels at 20 mg/mL concentration was determined by measuring storage moduli (G') as a function of angular frequency under 0.1% strain, at 25°C and 50°C respectively. […] (c) Mechanical strength is a function of concentration, as determined from oscillatory frequency sweep studies using Ac-LD6 (Ac-LIVAGD) (L) under 0.1% strain at 25°C. […] LK6 gels were therefore casted at different concentrations and their stiffness was measured (average ± s.d. of triplicates). As expected, G' values increased with peptide concentration and it was determined that a working concentration of 12 mM afforded gels with sufficient mechanical integrity to withstand handling. […]

Data set [3] is described as follows: Oscillation rheology of casted crosslinkable gels (frequency and amplitude sweep). The class given is physicochemical. Conditions: for gel stiffness on LK6-doping: final concentration 12 mM, cast-and-soak 0.06% H2O2 two hours; for stiffness after water soak: without oxidation. The procedure:
Peptide was dissolved in 200 µL of water +/- H2O2 and filled into custom-made hollow ring casts (diameter ∼1 cm). The ring ends were sealed with parafilm to minimise evaporation and the cast was kept at 25°C for 22 hours before further manipulations.
Rheology: The rheological properties of casted gels were measured with an ARES-G2 (TA Instruments, USA) using the oscillation method. Frequency-sweep studies were performed with ω=0-100 rad/s at strain, γ=0.1%. The gel stiffness was represented by plotting G' against ω. Amplitude-sweep studies were performed beforehand at 1 Hz with γ=0-100%. The LVE limit of the gel was defined as the value of γ when G' first dropped below 90% of the average initial value.
The rheological properties of casted gels were measured with an ARES-G2 (TA Instruments, USA) using the oscillation method. Frequency-sweep studies were performed with ω=0-100 rad/s at strain, γ=0.1%. The gel stiffness was represented by plotting G' against ω. Amplitude-sweep studies were performed beforehand at 1 Hz with γ=0-100%. The LVE limit of the gel was defined as the value of γ when G' first dropped below 90% of the average initial value.

Data set [4] is described as follows: Water soak of casted gels (resistance to degradation, shape retention). The class given is physicochemical. Conditions: non-oxidised gels, 24 hours of water soak.
The next data set has as its system V79. The data set can be described thus: Direct contact V79 colony assay (GLP). The class given is cell-based.
The test system of data set [5] is Fibroblasts isolated from the cornea/sclera of New Zealand White rabbits. The data set can be described thus: 3D primary cell culture on gels, calcein live-cell staining. The class given is cell-based. The settings on record: purified gels +/- various concentrations of CRGD, four days. An excerpt:
(§1) Reference is now made to the figures, wherein: • Figures 1A to 1M represent a sorted list of some exemplary peptides capable of forming hydrogels. These peptides are examples in which the entire peptide consists of a single linear amphiphilic sequence. Peptides which are forming hydrogels are named with a short code, but their individual sequence is disclosed. The peptides of these examples consist of a sequence of natural amino acids containing 3 to 7 amino acids. […] (a, b) The high mechanical strengths of different peptide hydrogels at 20 mg/mL concentration was determined by measuring storage moduli (G') as a function of angular frequency under 0.1% strain, at 25°C and 50°C respectively. […] (c) Mechanical strength is a function of concentration, as determined from oscillatory frequency sweep studies using Ac-LD6 (Ac-LIVAGD) (L) under 0.1% strain at 25°C. […] LK6 gels were therefore casted at different concentrations and their stiffness was measured (average ± s.d. of triplicates). As expected, G' values increased with peptide concentration and it was determined that a working concentration of 12 mM afforded gels with sufficient mechanical integrity to withstand handling. […]

Data set [6] shares this test system. The data set can be described thus: Quantification of cell-spread area (ImageJ). The class given is cell-based. Conditions: various gel cultures, ANOVA p<0.05.
Text: as §1

In a further data set the test system is skins of guinea pigs. The data set can be described thus: Direct contact Kligman maximization test (GLP, ISO 10993-10). Format: in vivo.
Data set [7] relates to HepG2 cells. The data set can be described thus: 3D cell culture on gels, calcein live-cell staining. Format: cell-based. Conditions: purified gels conjugated with different concentrations of RGD, after four days. The method, then: LK6C +/- CRGD gels were casted directly into 8-chamber Lab-Tek® wells (Nunc, NY, USA) and purified as reported in the SI. 0.5 mL of cell suspension in regular completed DMEM (Invitrogen, Singapore) was either seeded onto the gel or directly into the well (2D control) and incubated for four days. 0.5 µL of calcein-AM (Invitrogen) was then added to the media to identify live cells and images were captured using a confocal microscope (LSM5 DUO, Carl Zeiss, Germany). Beforehand, calcein-AM was verified to stain only live cells as ethanol- and H2O2-treated cells excluded the dye. All images, except for the 2D controls, were presented as mergers of several z-stacks. To further verify the 3D distribution of cells, the gel was embedded vertically in Jung Tissue Freezing Medium (Leica Instruments GmbH, Germany) and 20 µm cross-sectional slices were obtained with a cryostat (CM3050 S, Leica). Sections were mounted with coverslips and imaged as above.
To test for biocompatibility, HepG2 cells were either seeded directly into wells (2D control) or onto purified LK6C gels conjugated with different concentrations of RGD. […] This was repeated with primary rabbit fibroblasts (Figure 35), 3T3 murine fibroblasts (Figure 38) and NIH-3T3 murine fibroblasts (data not shown), confirming the biocompatibility of the gels. With regular media changes, cells remained viable for at least 3 weeks (Figure 38). […]

For data set [8], the system named is HepG2 cells. The data set can be described thus: Quantification of cell-spread area (ImageJ). The class given is cell-based. The settings on record: gel culture in the presence or absence of RGD. From the text:
Confocal images after calcein staining were processed using ImageJ (NIH, USA) to obtain the average cell-spread area under various culture conditions. For cells in 3D gel culture, images used for quantification were mergers of several z-stacks to capture the maximum cell-spread area. In all cases, at least three independent experiments with at least two locations selected from each culture were used for averaging.

Regarding `CC[C@H](C)[C@H](NC(=O)[C@H](CC(C)C)NC(C)=O)C(=O)N[C@H](C(=O)N[C@@H](C)C(=O)NCC(=O)N[C@@H](CC(=O)O)C(=O)O)C(C)C` [Ac-LD6 (L), Ac-LIVAGD-COOH] (Ac-LIVAGD-OH), in data set [1], the “concentration at which formation of aggregates is observed” value stood at 0.1 mg/mL and the “concentration at which peptide monomers align to form fibrous structures” value was found to be 1 mg/mL.
For the compound LIVAGK [LK6], in data set [2], the “material needed for gelation” value is 25 mg/mL and the “working concentration at which gels are formed” value came out at 12 mM. Further, in [3], the “gel stiffness on LK6-doping” value is recorded as “relatively stiff”. Besides, in data set [4], the “gel degradation after water soak” value is on record as “completely degraded”.
With “LIVAGKC [LK6C, cross-linkable peptide, LK6 modified with a cysteine residue at the C-terminus; forms hydrogels]”, the toxicity result in the data set on V79 is “no significant toxicity”. Further, the “cell viability (calcein staining)” value is “viable fibroblasts were seen in all cases” in [5] and “viable” with HepG2 cells [7]. Moreover, in [6], the “cell-spread area vs 2D culture” value was “spreaded more in 2D culture compared to those in the various gel cultures”. The sensitization result with skins of guinea pigs is given as “no sensitization”. Also, in [2], the “material needed for gelation” value was determined as 10 mg/mL. In data set [2], the “working concentration at which gels are formed” value stood at 12 mM. The “cell spreading vs regular 2D culture” value with HepG2 cells [8] is on record as “insignificant effects (p>0.05)”. Besides, in data set [3] (12 mM gel, 2 or 24 hours cast-and-soak or 22 hours in situ oxidation with 0.06% H2O2, up to four days of water soak), the “shape and stiffness after water soak” value was “maintained their shapes and in fact, became stiffer”. Further, the “stiffness after water soak” value in data set [3] (12 mM gel, 24 hours of water soak) was “broke down and lost their stiffness”; in [3] (12 mM gel, two hours of water soak) it was “could maintain their stiffness”. The “stiffness (G') following oxidation” value in data set [3] (compared to non-oxidised gels, different oxidation regimes) is recorded as “either maintained or increased”. The “gel stiffness on LK6-doping” value in data set [3] is listed as “relatively stiff”. In data set [3] (oxidised vs non-oxidised gels, cast-and-soak 2-24 hours 0.06% H2O2 or in situ 24 hours 0.03-0.1% H2O2), the “linear viscoelastic (LVE) limit (elasticity), increase following oxidation” value was 2.4-3.8 fold.
